Legend:
Format in all cases: cell-based
HUH7 = assay: CellTiter-Glo cell viability, liver cell lines, 8 days; conditions: Homo sapiens, Huh-7, 192 h; HUH7, 8 days
Description: (§1) The objective of this study is to investigate the effect of Compound 1 on cell viability of various types of liver cancer. Ten (10) different liver cancer cell lines were employed in the study. Each liver cell line shown in Table 4 was treated with Compound 1, pentamidine, as reference control, a standard of care (cisplatin) and culture medium contains 0.2% [v/v] DMSO vehicle control and IC50 values were obtained as described above. The raw data values from the CellTiter-Glo™ cell viability assay expressed in relative luminescence units were normalized to the vehicle for each individual plate, and any reduction in luminescence indicated a decrease in viability (%). The data was analyzed in GraphPad PRISM using a non-linear sigmoidal plot with variable slope (asymmetric four-point linear regression), and an IC50 value for each compound was generated. The experiment tested pentamidine, compound 1, and standard-of-care control Cisplatin in full growth media for 8 days. Cells were initially treated with the test compounds on Day 0, and the cells were then replenished with fresh compound dilutions on Day 3. Pentamidine, Compound 1, and cisplatin were tested at 9 concentration points; 100, 33.33, 11.11, 3.70, 1.23, 0.41, 0.14, 0.05, and 0.02 μM (final DMSO concentration=0.5%). In particular, the IC50 values of pentamidine and Compound 1 were 0.8 and 0.6 μM in Hep3B-luc, respectively.

HUH1 = assay: as above; conditions: Homo sapiens, HuH-1, 192 h; HUH1, 8 days
Description: as §1

HepG2 = assay: as above; conditions: Homo sapiens, 192 h; HepG2, 8 days
Description: as §1

MHCC97H = assay: as above; conditions: Homo sapiens, 192 h
Description: as §1

HCCLM3 = assay: as above; conditions: Homo sapiens, 192 h; HCCLM3, 8 days
Description: as §1

HEP3B2.7-1 = assay: as above; conditions: HEP3B2.7-1, Table 4
Description: as §1

SK-HEP-1 = assay: as above; conditions: Homo sapiens
Description: as §1

Hep3B = assay: as above; conditions: Homo sapiens, 192 h
Description: as §1

Hep3B-luc = assay: as above; conditions: Hep 3B-Luc, 192 h, full growth media
Description: as §1
The experiment tested pentamidine, Compound 1, and standard of care control, cisplatin, in full growth media for 8 days. Hep-3b cells were initially treated with the test compounds on Day 0, and the cells were then replenished with fresh compound dilutions on Day 3. […] The raw data values from the CellTiter-Glo™ cell viability assay expressed in relative luminescence units were normalized to the vehicle for each individual plate, and any reduction in luminescence indicated a decrease in viability (%). The data was analyzed in GraphPad PRISM using a non-linear sigmoidal plot with variable slope (asymmetric four-point linear regression), and an IC50 value for each compound was generated. […]

NCI-H69 = assay: CellTiter-Glo luminescent cell viability assay; conditions: Homo sapiens
Description: (§2) The objective of this study is to investigate potential cell killing effect of Compounds 1-15 on 3 cancer cell lines. 50% inhibition concentration (IC50) was determined for these compounds in various cancer cell lines using CellTiter-Glo™ luminescent cell viability assay at different compound concentrations. Each cell line (e.g., NCI-H209; NCI-H69; and SW1271) was treated with Compounds 1-15 and culture medium contains 0.2% [v/v] DMSO vehicle control. All the cells were cultured in the media supplemented with 10-20% fetal bovine serum at 37° C., 5% CO2 and 95% humidity.

NCI-H209 = assay: CellTiter-Glo luminescent cell viability assay; conditions: Homo sapiens
Description: as §2

`N=C(N)c1ccc(OCCCCCOc2ccc(C(=N)N)nc2)cc1` [Compound 1, 5-(5-(4-carbamimidoylphenoxy)pentyloxy)picolinimidamide] showed an IC50 (HUH7) of 530 nM, an IC50 (HUH1) of 2950 nM and an IC50 (HepG2) of 310 nM. It also gave an IC50 (MHCC97H) of 5320 nM, an IC50 (HCCLM3) of 9650 nM and an IC50 (HEP3B2.7-1) of 320 nM. The IC50 (SK-HEP-1; SK-HEP1, SK-HEP-1, first listing in Table 4) was 1400 nM, the IC50 (SK-HEP-1; SK-HEP1, SK-HEP-1, second listing in Table 4) was 630 nM and the IC50 (Hep3B) was 180 nM. For the same molecule, the IC50 (Hep3B-luc) was 600 nM, the IC50 (NCI-H69) was 858 nM and the IC50 (NCI-H209) was 1700 nM.
